Source: ChEMBL document CHEMBL5625165, “Nine-valent oleanolic acid conjugates as potent inhibitors blocking the entry of influenza A virus” (Eur J Med Chem, 2023)

Columns and labels:
[1] = Cytotoxicity against dog MDCK cells assessed as reduction in cell viability incubated for 48 hrs by celltiter-glo assay; assay type: toxicity, cell-based, Canis lupus familiaris
[2] = system: Influenza A virus; assay: Antiviral activity against influenza A virus B/Darwin/58/2019 (Yamagata) infected in MDCK cells assessed as inhibition of viral growth; assay type: functional, organism-based
[3] = Cytotoxicity against dog MDCK cells assessed as cell viability at 30 uM incubated for 48 hrs by celltiter-glo assay; assay type: toxicity, cell-based, Canis lupus familiaris; conditions: read-out: Activity
[4] = system: Influenza A virus; assay: Antiviral activity against influenza A virus A/WSN/33(H1N1) infected in MDCK cells assessed as inhibition of viral growth at 30 uM incubated for 48 hrs by microscopic analysis; assay type: functional; parameters: scale not given: the % may be the effect or the level left
[5] = Selectivity index, ratio of CC50 for cytotoxicity against dog MDCK cells assessed as reduction in cell viability to IC50 for antiviral activity against influenza A virus A/WSN/33(H1N1) infected in MDCK cells assessed as inhibition of viral-induced cytopathic effect; assay type: toxicity, cell-based; conditions: read-out: Ratio CC50/IC50
[6] = system: Influenza A virus; assay: Antiviral activity against influenza A virus B/Sichuan/531/2018 (Victoria) infected in MDCK cells assessed as inhibition of viral growth; assay type: functional, organism-based
[7] = system: Influenza A virus; assay: Antiviral activity against influenza A virus A/WSN/33(H1N1) infected in MDCK cells assessed as inhibition of viral-induced cytopathic effect incubated for 48 hrs by microscopic analysis; assay type: functional, organism-based
[8] = Selectivity index, ratio of CC50 for cytotoxicity against dog MDCK cells assessed as reduction in cell viability to IC50 for antiviral activity against influenza A virus B/Sichuan/531/2018 (Victoria) infected in MDCK cells assessed as inhibition of viral growth; assay type: toxicity, cell-based; conditions: read-out: Ratio CC50/IC50
[9] = Selectivity index, ratio of CC50 for cytotoxicity against dog MDCK cells assessed as reduction in cell viability to IC50 for antiviral activity against influenza A virus B/Darwin/58/2019 (Yamagata) infected in MDCK cells assessed as inhibition of viral growth; assay type: toxicity, cell-based; conditions: read-out: Ratio CC50/IC50
[10] = system: Erythrocyte; assay: Hemolytic activity in rabbit RBC assessed as hemolysis at 300 uM incubated for 2 hr by spectrophotometry analysis; assay type: toxicity, cell-based, Oryctolagus cuniculus

CCOC(=O)C1=C[C@@H](OC(CC)CC)[C@H](NC(C)=O)[C@@H](N)C1.O=P(O)(O)O [OSELTAMIVIR PHOSPHATE]
CC50 at 48 h [1]: > 100 µM
IC50 [2]: > 100 µM
viability at 48 h, 30 µM [3]: 100%
Activity [4]: 89.22%
selectivity ratio [5]: > 55
IC50 [6]: > 100 µM

CC1(C)CC[C@]2(C(=O)NCCOCCOCCn3cc(COc4cc(C(=O)NCCNC(=O)OCCn5cc(COc6cc(OCc7cn(CCOC(=O)NCCNC(=O)c8cc(OCc9cn(CCOCCOCCNC(=O)[C@]%10%11CCC(C)(C)C[C@H]%10C%10=CC[C@@H]%12[C@@]%13(C)CC[C@H](O)C(C)(C)[C@@H]%13CC[C@@]%12(C)[C@]%10(C)CC%11)nn9)c(OCc9cn(CCOCCOCCNC(=O)[C@]%10%11CCC(C)(C)C[C@H]%10C%10=CC[C@@H]%12[C@@]%13(C)CC[C@H](O)C(C)(C)[C@@H]%13CC[C@@]%12(C)[C@]%10(C)CC%11)nn9)c(OCc9cn(CCOCCOCCNC(=O)[C@]%10%11CCC(C)(C)C[C@H]%10C%10=CC[C@@H]%12[C@@]%13(C)CC[C@H](O)C(C)(C)[C@@H]%13CC[C@@]%12(C)[C@]%10(C)CC%11)nn9)c8)nn7)cc(OCc7cn(CCOC(=O)NCCNC(=O)c8cc(OCc9cn(CCOCCOCCNC(=O)[C@]%10%11CCC(C)(C)C[C@H]%10C%10=CC[C@@H]%12[C@@]%13(C)CC[C@H](O)C(C)(C)[C@@H]%13CC[C@@]%12(C)[C@]%10(C)CC%11)nn9)c(OCc9cn(CCOCCOCCNC(=O)[C@]%10%11CCC(C)(C)C[C@H]%10C%10=CC[C@@H]%12[C@@]%13(C)CC[C@H](O)C(C)(C)[C@@H]%13CC[C@@]%12(C)[C@]%10(C)CC%11)nn9)c(OCc9cn(CCOCCOCCNC(=O)[C@]%10%11CCC(C)(C)C[C@H]%10C%10=CC[C@@H]%12[C@@]%13(C)CC[C@H](O)C(C)(C)[C@@H]%13CC[C@@]%12(C)[C@]%10(C)CC%11)nn9)c8)nn7)c6)nn5)cc(OCc5cn(CCOCCOCCNC(=O)[C@]67CCC(C)(C)C[C@H]6C6=CC[C@@H]8[C@@]9(C)CC[C@H](O)C(C)(C)[C@@H]9CC[C@@]8(C)[C@]6(C)CC7)nn5)c4OCc4cn(CCOCCOCCNC(=O)[C@]56CCC(C)(C)C[C@H]5C5=CC[C@@H]7[C@@]8(C)CC[C@H](O)C(C)(C)[C@@H]8CC[C@@]7(C)[C@]5(C)CC6)nn4)nn3)CC[C@]3(C)C(=CC[C@@H]4[C@@]5(C)CC[C@H](O)C(C)(C)[C@@H]5CC[C@]43C)[C@@H]2C1
CC50 at 48 h [1]: > 30 µM
IC50 [7]: 18.1 µM
viability at 48 h, 30 µM [3]: 97.2%
Activity [4]: 97.28%
selectivity ratio [5]: > 1.66

CC1(C)CC[C@]2(C(=O)O)CC[C@]3(C)C(=CC[C@@H]4[C@@]5(C)CC[C@H](O)C(C)(C)[C@@H]5CC[C@]43C)[C@@H]2C1 [OLEANOLIC_ACID]
CC50 at 48 h [1]: > 100 µM
viability at 48 h, 30 µM [3]: 99%
Activity [4]: 25.06%
selectivity ratio [5]: > 1.38

COC(=O)c1cc(OCc2cn(CCOCCOCCOCCNC(=O)c3cc(OCc4cn(CCOCCOCCOCCNC(=O)[C@]56CCC(C)(C)C[C@H]5C5=CC[C@@H]7[C@@]8(C)CC[C@H](O)C(C)(C)[C@@H]8CC[C@@]7(C)[C@]5(C)CC6)nn4)c(OCc4cn(CCOCCOCCOCCNC(=O)[C@]56CCC(C)(C)C[C@H]5C5=CC[C@@H]7[C@@]8(C)CC[C@H](O)C(C)(C)[C@@H]8CC[C@@]7(C)[C@]5(C)CC6)nn4)c(OCc4cn(CCOCCOCCOCCNC(=O)[C@]56CCC(C)(C)C[C@H]5C5=CC[C@@H]7[C@@]8(C)CC[C@H](O)C(C)(C)[C@@H]8CC[C@@]7(C)[C@]5(C)CC6)nn4)c3)nn2)c(OCc2cn(CCOCCOCCOCCNC(=O)c3cc(OCc4cn(CCOCCOCCOCCNC(=O)[C@]56CCC(C)(C)C[C@H]5C5=CC[C@@H]7[C@@]8(C)CC[C@H](O)C(C)(C)[C@@H]8CC[C@@]7(C)[C@]5(C)CC6)nn4)c(OCc4cn(CCOCCOCCOCCNC(=O)[C@]56CCC(C)(C)C[C@H]5C5=CC[C@@H]7[C@@]8(C)CC[C@H](O)C(C)(C)[C@@H]8CC[C@@]7(C)[C@]5(C)CC6)nn4)c(OCc4cn(CCOCCOCCOCCNC(=O)[C@]56CCC(C)(C)C[C@H]5C5=CC[C@@H]7[C@@]8(C)CC[C@H](O)C(C)(C)[C@@H]8CC[C@@]7(C)[C@]5(C)CC6)nn4)c3)nn2)c(OCc2cn(CCOCCOCCOCCNC(=O)c3cc(OCc4cn(CCOCCOCCOCCNC(=O)[C@]56CCC(C)(C)C[C@H]5C5=CC[C@@H]7[C@@]8(C)CC[C@H](O)C(C)(C)[C@@H]8CC[C@@]7(C)[C@]5(C)CC6)nn4)c(OCc4cn(CCOCCOCCOCCNC(=O)[C@]56CCC(C)(C)C[C@H]5C5=CC[C@@H]7[C@@]8(C)CC[C@H](O)C(C)(C)[C@@H]8CC[C@@]7(C)[C@]5(C)CC6)nn4)c(OCc4cn(CCOCCOCCOCCNC(=O)[C@]56CCC(C)(C)C[C@H]5C5=CC[C@@H]7[C@@]8(C)CC[C@H](O)C(C)(C)[C@@H]8CC[C@@]7(C)[C@]5(C)CC6)nn4)c3)nn2)c1
CC50 at 48 h [1]: > 30 µM
IC50 [7]: 47.1 µM
viability at 48 h, 30 µM [3]: 100%
Activity [4]: 65.08%
selectivity ratio [5]: > 0.64

O=C1c2c(O)c(=O)ccn2N([C@@H]2c3ccccc3SCc3c2ccc(F)c3F)[C@@H]2COCCN12 [BALOXAVIR]
CC50 at 48 h [1]: 9.56 µM
IC50 [2]: 3.78 µM
IC50 [7]: 0.009 µM
selectivity ratio [8]: 137
selectivity ratio [5]: 1650
selectivity ratio [9]: 2.53
IC50 [6]: 0.07 µM

CC1(C)CC[C@]2(C(=O)NCCOCCOCCOCCOCCn3cc(COc4cc(C(=O)NCCNC(=O)OCCn5cc(COc6cc(OCc7cn(CCOC(=O)NCCNC(=O)c8cc(OCc9cn(CCOCCOCCOCCOCCNC(=O)[C@]%10%11CCC(C)(C)C[C@H]%10C%10=CC[C@@H]%12[C@@]%13(C)CC[C@H](O)C(C)(C)[C@@H]%13CC[C@@]%12(C)[C@]%10(C)CC%11)nn9)c(OCc9cn(CCOCCOCCOCCOCCNC(=O)[C@]%10%11CCC(C)(C)C[C@H]%10C%10=CC[C@@H]%12[C@@]%13(C)CC[C@H](O)C(C)(C)[C@@H]%13CC[C@@]%12(C)[C@]%10(C)CC%11)nn9)c(OCc9cn(CCOCCOCCOCCOCCNC(=O)[C@]%10%11CCC(C)(C)C[C@H]%10C%10=CC[C@@H]%12[C@@]%13(C)CC[C@H](O)C(C)(C)[C@@H]%13CC[C@@]%12(C)[C@]%10(C)CC%11)nn9)c8)nn7)cc(OCc7cn(CCOC(=O)NCCNC(=O)c8cc(OCc9cn(CCOCCOCCOCCOCCNC(=O)[C@]%10%11CCC(C)(C)C[C@H]%10C%10=CC[C@@H]%12[C@@]%13(C)CC[C@H](O)C(C)(C)[C@@H]%13CC[C@@]%12(C)[C@]%10(C)CC%11)nn9)c(OCc9cn(CCOCCOCCOCCOCCNC(=O)[C@]%10%11CCC(C)(C)C[C@H]%10C%10=CC[C@@H]%12[C@@]%13(C)CC[C@H](O)C(C)(C)[C@@H]%13CC[C@@]%12(C)[C@]%10(C)CC%11)nn9)c(OCc9cn(CCOCCOCCOCCOCCNC(=O)[C@]%10%11CCC(C)(C)C[C@H]%10C%10=CC[C@@H]%12[C@@]%13(C)CC[C@H](O)C(C)(C)[C@@H]%13CC[C@@]%12(C)[C@]%10(C)CC%11)nn9)c8)nn7)c6)nn5)cc(OCc5cn(CCOCCOCCOCCOCCNC(=O)[C@]67CCC(C)(C)C[C@H]6C6=CC[C@@H]8[C@@]9(C)CC[C@H](O)C(C)(C)[C@@H]9CC[C@@]8(C)[C@]6(C)CC7)nn5)c4OCc4cn(CCOCCOCCOCCOCCNC(=O)[C@]56CCC(C)(C)C[C@H]5C5=CC[C@@H]7[C@@]8(C)CC[C@H](O)C(C)(C)[C@@H]8CC[C@@]7(C)[C@]5(C)CC6)nn4)nn3)CC[C@]3(C)C(=CC[C@@H]4[C@@]5(C)CC[C@H](O)C(C)(C)[C@@H]5CC[C@]43C)[C@@H]2C1
CC50 at 48 h [1]: > 30 µM
Activity [10]: Non-Toxic
viability at 48 h, 30 µM [3]: 99.3%
Activity [4]: 53.88%
